In brackets after ≈: the same amount, converted by molar mass. Read-outs that look alike come from different tables or passages of the source.
What was measured:
[1] = test system: mouse melanoma B16 cells; assay: Influence of extract powder and other skin-whitening ingredients on melanin formation (Test 2 for in vitro skin-whitening effect, Experiment 4); type: cell-based; parameters: Judgement, 1.25% extract powder of indigo plant: key to the marks not given beside the values; conditions: 72 hours
Protocol: The following experiment was conducted to examine the influence of an extract powder of indigo plant and other ingredients with skin-whitening action on melanin formation. Mouse melanoma B16 cells were cultured for 24 hours, and to the resulting culture was added any one of the test solutions to give a composition ratio (%) of each of […], followed by culturing for 72 hours. The viable cells were counted and packed into a capillary tube for color observation. The judgement of the effects was evaluated based on the same criterion as in Experiment 1. In this experiment system, the effect in the case of culturing the cells with addition of 0.025% of the extract powder of indigo extract was judged to be “+”.

[2] = test system: P. gingivalis; assay: Minimum inhibitory concentration (MIC), Experiment 13; type: cell-based, Prophyromonas gingivalis; conditions: for MIC: Porphyromonas gingivalis
Protocol: (§1) The following experiment was conducted to examine the influence of an extract powder of indigo plant on microorganisms in human oral cavity. An extract powder of indigo plant, prepared by the method in the later described Example 1, was dissolved in refined water to obtain an aqueous solution with a concentration of 1.5% indigo plant extract, d.s.b. Using the aqueous solution, the minimum inhibitory concentration (may be designated as “MIC”, hereinafter) against microorganisms in human oral cavity (microorganisms as causatives of periodontal diseases and dental caries) was determined. Tryptanthrin, gallic acid, and caffeic acid, which had been confirmed to be contained in the indigo extract, were determined for MIC against microorganisms in human oral cavity, and the data was shown in Table 9 in parallel. The following method was used for assaying MIC.
(§2) The MICs of an extract powder of indigo plant, tryptanthrin, gallic acid, and caffeic acid against microorganisms in human oral cavity were determined according to the standard method of Japanese Society of Chemotherapy (see “Saikin-Shinkin-Kensa (Test for Bacteria and Fungi), 2nd Edition”, pp. 524-529 (1982)). Examples of microorganisms, used as causatives of periodontal diseases, were microorganisms of Prophyromonas gingivalis strains such as JCM8525, JCM12257, and ATCC 33277 strains; those of Actinobacillus actinomycetemcomitans (may be abbreviated as “A. actinomycetemcomitans”) such as JCM2434 and JCM8577 strains; Prevotella intermedia (may be abbreviated as P. intermedia) JCM7365 strain; and Campylobacter rectus (may be abbreviated as C. rectus) JMC6301 strain. Examples of microorganisms, used as causatives of dental caries, were Streptococcus mutans strains such as OMZ-175, OMZ-176, OMZ-65, OMZ-61, B-13D, and Ingbritt strains; and Streptococcus sobrinus (may be abbreviated as “S. sobrinus”) 6715 strain. Among these microorganisms, those which are causatives of periodontal diseases were cultured at 37° C. for 48 hours, while those which are causatives of dental caries were cultured at 37° C. for 18 to 24 hours under anaerobic conditions by using a brain heart infusion (abbreviated as “BHI”, hereinafter), commercialized by Difco Laboratories, Detroit, USA, supplemented with 5 μg/ml of hemin, and 0.5 μg/ml of vitamin K3. The resulting cultures of the microorganisms, as causatives of both periodontal diseases and dental caries, were respectively diluted into solutions with 10^8 cells and 10^6 cells.

[3] = test system: A. actinomycetemcomitans; assay: as above; type: cell-based, Actinobacillus actinomycetemcomitans; conditions: for MIC: Aggregatibacter actinomycetemcomitans, read-out: Minimum inhibitory concentration (MIC)
Protocol: as §1, §2

[4] = test system: P. intermedia; assay: as above; type: cell-based; conditions: Prevotella intermedia, read-out: Minimum inhibitory concentration (MIC)
Protocol: as §1, §2

[5] = test system: S. mutans; assay: as above; type: cell-based; conditions: Streptococcus mutans
Protocol: as §1, §2

[6] = test system: C. rectus; assay: as above; type: cell-based; conditions: Campylobacter rectus, read-out: Minimum inhibitory concentration (MIC)
Protocol: as §1, §2

[7] = test system: S. sobrinus; assay: as above; type: cell-based; conditions: Streptococcus sobrinus, read-out: Minimum inhibitory concentration (MIC)
Protocol: as §1, §2

[8] = test system: mouse melanoma B16 cells; assay: Influence on melanin formation, blackening of cells (Test 1 for in vitro whitening effect, Experiment 3); type: cell-based; conditions: medium containing 2.5 mM; cultured 72 hours
Protocol: Using a dried leaf of Polygonum tinctorium Lour., Japanese knotweed, buckwheat, or knotgrass as a plant of the family Polygonaceae, extract powders of which were prepared. The extract powders of indigo plant were prepared by the method in later described Example 2. According to the same method as in Example 2, using a dried leaf of Japanese knotweed, buckwheat, or knotgrass in place of the one of Polygonum tinctorium Lour., extract powders of the above plants were prepared for use in the following experiment, where, as an extract powder of indigo plant, the one prepared by the method in later described Example 2 was used, unless specified otherwise. […] After counting the number of viable cells, the viable cells were packed into a capillary tube for color observation. […] The degree of blackening of the B16 cells was evaluated based on the following criterion, and the results are in Table 3. Evaluations with Reference to the Blackening Degree of Control Free of Agent: −: Unchanged; ±: Slight inhibition of blackening; +: Positive inhibition of blackening; ++: Clear inhibition of blackening; +++: Complete inhibition of blackening.

[9] = ingredient 1.0% in combination with extract powder of indigo plant
[10] = ingredient 0.5% in combination with extract powder of indigo plant
[11] = strain JMC12257, read-out: Minimum inhibitory concentration (MIC)
[12] = strain B-13D, read-out: Minimum inhibitory concentration (MIC)
[13] = strain Ingbritt, read-out: Minimum inhibitory concentration (MIC)
[14] = strain OMZ-61, read-out: Minimum inhibitory concentration (MIC)
[15] = strain OMZ-65, read-out: Minimum inhibitory concentration (MIC)
[16] = strain OMZ-175, read-out: Minimum inhibitory concentration (MIC)
[17] = strain OMZ-176, read-out: Minimum inhibitory concentration (MIC)

## COc1ccc(C(=O)[O-])c(O)c1.[K+] [4-Methoxysalicylic acid potassium salt]
[1]; composition ratio 1.0%
  Judgement, With no extract powder of indigo plant: +
[1]; [9]
  Judgement, 1.25% extract powder of indigo plant: +++

## CCCCc1ccc(O)cc1O [4-n-Butylresorcinol]
[1]; composition ratio 0.5%
  Judgement, With no extract powder of indigo plant: +
[1]; [10]
  Judgement, 1.25% extract powder of indigo plant: +++

## OC[C@H]1O[C@@H](Oc2ccc(O)cc2)[C@H](O)[C@@H](O)[C@@H]1O [Arbutin]
[1]; composition ratio 0.5%
  Judgement, With no extract powder of indigo plant: +
[1]; [10]
  Judgement, 1.25% extract powder of indigo plant: +++

## O=C(O)/C=C/c1ccc(O)c(O)c1 [Caffeic acid]
[2]; [11]
  MIC: 400 µg/mL (≈ 2220 µM)
[2]; strain JCM8525
  Minimum inhibitory concentration (MIC): 400 µg/mL (≈ 2220 µM)
[2]; strain JMC33277
  Minimum inhibitory concentration (MIC): 400 µg/mL (≈ 2220 µM)
[3]; strain JMC2434
  MIC: 400 µg/mL (≈ 2220 µM)
[3]; strain JMC8577
  MIC: 200 µg/mL (≈ 1110 µM)
[4]; strain JMC7365
  MIC: 400 µg/mL (≈ 2220 µM)
[5]; [12]
  MIC: 200 µg/mL (≈ 1110 µM)
[5]; [13]
  MIC: 1600 µg/mL (≈ 8880 µM)
[5]; [14]
  MIC: 400 µg/mL (≈ 2220 µM)
[5]; [15]
  MIC: 200 µg/mL (≈ 1110 µM)
[5]; [16]
  MIC: 400 µg/mL (≈ 2220 µM)
[5]; [17]
  MIC: 800 µg/mL (≈ 4440 µM)
[6]; strain JMC6301
  MIC: 100 µg/mL (≈ 555 µM)
[7]; strain 6715
  MIC: 800 µg/mL (≈ 4440 µM)

## O=c1oc2c(O)c(O)cc3c(=O)oc4c(O)c(O)cc1c4c23 [Ellagic acid]
[1]; composition ratio 0.5%
  Judgement, With no extract powder of indigo plant: ±
[1]; [10]
  Judgement, 1.25% extract powder of indigo plant: ++

## O=C(O)c1cc(O)c(O)c(O)c1 [Gallic acid]
[2]; [11]
  MIC: 400 µg/mL (≈ 2350 µM)
[2]; strain JCM8525
  Minimum inhibitory concentration (MIC): 400 µg/mL (≈ 2350 µM)
[2]; strain JMC33277
  Minimum inhibitory concentration (MIC): 400 µg/mL (≈ 2350 µM)
[3]; strain JMC2434
  MIC: 800 µg/mL (≈ 4700 µM)
[3]; strain JMC8577
  MIC: 800 µg/mL (≈ 4700 µM)
[4]; strain JMC7365
  MIC: 400 µg/mL (≈ 2350 µM)
[5]; [12]
  MIC: 200 µg/mL (≈ 1180 µM)
[5]; [13]
  MIC: 1600 µg/mL (≈ 9410 µM)
[5]; [14]
  MIC: 200 µg/mL (≈ 1180 µM)
[5]; [15]
  MIC: 1600 µg/mL (≈ 9410 µM)
[5]; [16]
  MIC: 400 µg/mL (≈ 2350 µM)
[5]; [17]
  MIC: 400 µg/mL (≈ 2350 µM)
[6]; strain JMC6301
  MIC: 400 µg/mL (≈ 2350 µM)
[7]; strain 6715
  MIC: 800 µg/mL (≈ 4700 µM)

## O=c1cc(CO)occ1O [Kojic acid]
[1]; composition ratio 1.0%
  Judgement, With no extract powder of indigo plant: +
[1]; [9]
  Judgement, 1.25% extract powder of indigo plant: +++
[8]
  Judgement (inhibition of blackening of B16 cells): +

## CCCCC/C=C\C/C=C\CCCCCCCC(=O)O [Linoleic acid]
[1]; composition ratio 0.5%
  Judgement, With no extract powder of indigo plant: ±
[1]; [10]
  Judgement, 1.25% extract powder of indigo plant: ++

## O=C1O[C@H]([C@@H](O)CO)C([O-])=C1O.[Na+] [Sodium L-ascorbate]
[1]; composition ratio 2.0%
  Judgement, With no extract powder of indigo plant: +
[1]; ingredient 2.0% in combination with extract powder of indigo plant
  Judgement, 1.25% extract powder of indigo plant: +++

## COc1cc(CCC(=O)CC(=O)CCc2ccc(O)c(OC)c2)ccc1O [Tetrahydrocurcumin]
[1]; composition ratio 0.5%
  Judgement, With no extract powder of indigo plant: ±
[1]; [10]
  Judgement, 1.25% extract powder of indigo plant: ++

## NC[C@H]1CC[C@H](C(=O)O)CC1 [Tranexamic acid]
[1]; composition ratio 1.0%
  Judgement, With no extract powder of indigo plant: ±
[1]; [9]
  Judgement, 1.25% extract powder of indigo plant: ++

## O=C1c2ccccc2-n2c1nc1ccccc1c2=O [Tryptanthrin]
[2]; read-out: Minimum inhibitory concentration (MIC), strain JMC8525
  MIC: 6.25 µg/mL (≈ 25.2 µM)
[2]; read-out: Minimum inhibitory concentration (MIC), strain JMC12257
  MIC: 12.5 µg/mL (≈ 50.4 µM)
[2]; read-out: Minimum inhibitory concentration (MIC), strain JMC33277
  MIC: 12.5 µg/mL (≈ 50.4 µM)
[3]
  MIC: 25 µg/mL (≈ 101 µM)
[3]; strain JMC2434
  Minimum inhibitory concentration (MIC): 25 µg/mL (≈ 101 µM)
[4]
  MIC: 6.25 µg/mL (≈ 25.2 µM)
[5]; read-out: Minimum inhibitory concentration (MIC), strain B-13D
  MIC: 6.25 µg/mL (≈ 25.2 µM)
[5]; read-out: Minimum inhibitory concentration (MIC), strain Ingbritt
  MIC: 25 µg/mL (≈ 101 µM)
[5]; read-out: Minimum inhibitory concentration (MIC), strain OMZ-61
  MIC: 6.25 µg/mL (≈ 25.2 µM)
[5]; read-out: Minimum inhibitory concentration (MIC), strain OMZ-65
  MIC: 12.5 µg/mL (≈ 50.4 µM)
[5]; read-out: Minimum inhibitory concentration (MIC), strain OMZ-175
  MIC: 6.25 µg/mL (≈ 25.2 µM)
[5]; read-out: Minimum inhibitory concentration (MIC), strain OMZ-176
  MIC: 12.5 µg/mL (≈ 50.4 µM)
[6]
  MIC: 25 µg/mL (≈ 101 µM)
[7]
  MIC: 25 µg/mL (≈ 101 µM)
